# Patent US9670194B2 (Calitor Sciences, LLC, priority 2013, dated 2017)
# How the values were obtained:
# [1] = Compound stability in human liver microsomes; format: in vitro ADME; settings: for half-life at 5 μM: human liver microsomes 0.5 mg protein/mL, compound 5 μM, NADPH 1.0 mM, 37° C.; for CLint scaled at 5 μM: human liver microsomes, in vivo CLint extrapolated
# [2] = Compound stability in rat liver microsomes; format: in vitro ADME; settings: pH 7.4; for half-life at 5 μM: rat liver microsomes 0.5 mg protein/mL, compound 5 μM, NADPH 1.0 mM, 37° C.; for CLint scaled at 5 μM: rat liver microsomes, in vivo CLint extrapolated
# [3] = Pharmacokinetics after intravenous and oral administration in rats; format: in vivo, rat; settings: for clearance (CL) / AUC(0-t) / half-life / Vd: iv dosing, dose 1 mg/kg; for bioavailability / AUC(0-t) / half-life / Vd: rat, plasma; for bioavailability: iv dose 1 mg/kg, oral dose generally 5 or 10 mg/kg; for Vd: read-out: Vss
# PI3K (p110β/p85α) (h) = PI3K (p110β/p85α) (h) (Homo sapiens (Human), UniProt P42338); assay: PI3K (p110β/p85α) (h) non-radioactive HTRF kinase assay; format: biochemical
# PI3K (p110β/p85α) (h), sequence (P42338 whole entry): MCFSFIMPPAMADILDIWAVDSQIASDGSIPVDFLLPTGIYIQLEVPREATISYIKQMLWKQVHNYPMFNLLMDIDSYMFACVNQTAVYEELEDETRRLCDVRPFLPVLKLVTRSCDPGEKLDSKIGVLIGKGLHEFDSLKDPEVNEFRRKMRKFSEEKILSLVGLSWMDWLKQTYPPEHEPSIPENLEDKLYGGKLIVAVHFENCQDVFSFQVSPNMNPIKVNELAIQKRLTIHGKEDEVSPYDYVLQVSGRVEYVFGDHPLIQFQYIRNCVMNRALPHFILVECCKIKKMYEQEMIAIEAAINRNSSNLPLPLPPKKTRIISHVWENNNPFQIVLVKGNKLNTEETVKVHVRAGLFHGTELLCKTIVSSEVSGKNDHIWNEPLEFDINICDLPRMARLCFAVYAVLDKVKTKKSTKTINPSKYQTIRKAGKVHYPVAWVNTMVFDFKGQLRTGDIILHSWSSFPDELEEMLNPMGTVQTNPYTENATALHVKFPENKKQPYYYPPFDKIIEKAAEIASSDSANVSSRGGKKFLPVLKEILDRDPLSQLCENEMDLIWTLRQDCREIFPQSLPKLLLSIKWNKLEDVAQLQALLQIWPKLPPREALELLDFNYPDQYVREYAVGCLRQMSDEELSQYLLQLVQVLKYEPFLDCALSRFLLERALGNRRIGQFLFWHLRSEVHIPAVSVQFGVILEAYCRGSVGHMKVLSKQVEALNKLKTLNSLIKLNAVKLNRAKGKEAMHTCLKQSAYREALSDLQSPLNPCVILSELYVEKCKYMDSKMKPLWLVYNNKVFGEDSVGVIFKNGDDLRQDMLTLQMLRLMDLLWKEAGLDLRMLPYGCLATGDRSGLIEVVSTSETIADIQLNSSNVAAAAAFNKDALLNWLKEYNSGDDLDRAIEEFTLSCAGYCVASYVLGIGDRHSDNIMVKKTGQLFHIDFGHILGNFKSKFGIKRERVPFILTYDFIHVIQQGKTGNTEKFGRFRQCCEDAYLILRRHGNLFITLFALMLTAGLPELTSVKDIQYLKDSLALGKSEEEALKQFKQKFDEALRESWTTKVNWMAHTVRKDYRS
# PI3K (p110β/p85α) (h), sequence (P27986 whole entry partner): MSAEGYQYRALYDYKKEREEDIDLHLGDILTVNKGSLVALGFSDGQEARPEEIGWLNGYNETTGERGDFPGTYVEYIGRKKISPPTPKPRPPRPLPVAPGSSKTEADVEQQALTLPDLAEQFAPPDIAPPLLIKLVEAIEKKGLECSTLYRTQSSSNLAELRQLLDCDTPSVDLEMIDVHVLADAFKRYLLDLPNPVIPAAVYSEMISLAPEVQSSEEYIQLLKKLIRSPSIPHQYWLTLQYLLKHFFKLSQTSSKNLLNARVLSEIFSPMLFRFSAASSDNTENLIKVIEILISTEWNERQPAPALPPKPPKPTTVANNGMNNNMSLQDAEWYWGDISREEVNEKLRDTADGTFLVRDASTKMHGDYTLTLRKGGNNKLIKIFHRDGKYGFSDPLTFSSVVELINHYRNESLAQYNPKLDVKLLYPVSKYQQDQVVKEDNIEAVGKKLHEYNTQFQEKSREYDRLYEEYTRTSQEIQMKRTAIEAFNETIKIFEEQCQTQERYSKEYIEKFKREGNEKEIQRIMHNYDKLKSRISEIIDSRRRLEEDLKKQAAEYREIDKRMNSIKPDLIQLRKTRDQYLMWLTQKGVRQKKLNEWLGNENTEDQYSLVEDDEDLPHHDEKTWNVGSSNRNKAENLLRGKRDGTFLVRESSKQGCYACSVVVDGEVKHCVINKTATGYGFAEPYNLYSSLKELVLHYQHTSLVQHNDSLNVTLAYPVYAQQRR
# PI3K (p110δ/p85α) (h) = PI3K (p110δ/p85α) (h) (Homo sapiens (Human), UniProt O00329); assay: PI3K (p110δ/p85α) (h) non-radioactive HTRF kinase assay; format: biochemical
# PI3K (p110δ/p85α) (h), sequence (O00329 whole entry): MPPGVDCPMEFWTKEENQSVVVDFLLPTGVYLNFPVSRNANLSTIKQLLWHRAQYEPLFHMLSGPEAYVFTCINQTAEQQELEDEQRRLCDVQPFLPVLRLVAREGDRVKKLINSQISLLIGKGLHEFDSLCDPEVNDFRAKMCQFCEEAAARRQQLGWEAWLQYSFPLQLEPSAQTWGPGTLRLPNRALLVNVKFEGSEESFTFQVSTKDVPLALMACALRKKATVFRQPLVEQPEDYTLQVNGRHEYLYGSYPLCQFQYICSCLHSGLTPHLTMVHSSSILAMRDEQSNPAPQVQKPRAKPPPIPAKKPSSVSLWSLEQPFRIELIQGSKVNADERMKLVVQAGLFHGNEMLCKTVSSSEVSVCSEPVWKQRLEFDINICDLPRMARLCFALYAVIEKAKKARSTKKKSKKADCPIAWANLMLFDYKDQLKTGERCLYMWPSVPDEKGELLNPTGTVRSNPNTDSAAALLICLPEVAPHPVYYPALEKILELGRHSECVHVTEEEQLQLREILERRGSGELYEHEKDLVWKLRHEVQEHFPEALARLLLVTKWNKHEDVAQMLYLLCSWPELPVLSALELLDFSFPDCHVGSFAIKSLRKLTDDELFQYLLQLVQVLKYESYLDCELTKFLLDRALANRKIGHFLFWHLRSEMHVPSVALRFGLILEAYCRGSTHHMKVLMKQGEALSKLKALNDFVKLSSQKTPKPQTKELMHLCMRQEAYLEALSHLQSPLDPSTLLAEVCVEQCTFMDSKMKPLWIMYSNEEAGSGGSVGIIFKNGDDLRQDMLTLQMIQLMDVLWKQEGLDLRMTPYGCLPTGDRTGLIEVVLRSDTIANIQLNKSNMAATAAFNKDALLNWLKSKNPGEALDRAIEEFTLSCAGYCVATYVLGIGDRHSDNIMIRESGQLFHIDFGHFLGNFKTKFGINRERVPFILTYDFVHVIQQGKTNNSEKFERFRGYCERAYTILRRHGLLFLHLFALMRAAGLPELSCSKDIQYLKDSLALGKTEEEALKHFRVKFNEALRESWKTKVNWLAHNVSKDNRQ
# PI3K (p110δ/p85α) (h), sequence (P27986 whole entry partner): as the sequence (P27986 whole entry partner) above
Compound,half-life at 5 μM [1],CLint scaled at 5 μM [1],half-life at 5 μM [2],CLint scaled at 5 μM [2],clearance (CL) [3],bioavailability [3],AUC(0-t) [3],half-life [3],Vd [3],IC50 (PI3K (p110β/p85α) (h)),IC50 (PI3K (p110δ/p85α) (h))
"CC[C@H](Nc1ncnc(N)c1C1=N[C@@H](C)CO1)c1nc2cccc(Cl)c2c(=O)n1-c1ccccc1 [Ex. 6, 2-((S)-1((6-amino-5-((S)-4-methyl-4,5-dihydrooxazol-2-yl)pyrimidin-4-yl)amino)propyl)-5-chloro-3-phenylquinazolin-4(3H)-one]",3.11 min,560 mL/min/kg,3.44 min,722 mL/min/kg,110 mL/min/kg,5.56%,151 ng·h/mL,69 min,6.75 L/kg,> 3000 nM,99 nM
"CC[C@H](Nc1ncnc(N)c1-c1nnc(C)o1)c1nc2cccc(F)c2c(=O)n1-c1ccccc1 [Ex. 40, (S)-2-(1-((6-amino-5-(5-methyl-1,3,4-oxadiazol-2-yl)pyrimidin-4-yl)amino)-propyl)-5-fluoro-3-phenylquinazolin-4(3H)-one]",28 min,62.1 mL/min/kg,12.6 min,198 mL/min/kg,57.3 mL/min/kg,112%,292 ng·h/mL,40.2 min,2.99 L/kg,–,93 nM
"C[C@H](Nc1ncnc(N)c1-c1ncn(C)n1)c1nc2cccc(Cl)c2c(=O)n1C1CC1 [Ex. 44, (S)-2-(1-((6-amino-5-(1-methyl-1H-1,2,4-triazol-3-yl)pyrimidin-4-yl)amino)-ethyl)-5-chloro-3-cyclopropylquinazolin-4(3H)-one]",13.6 min,128 mL/min/kg,13 min,191 mL/min/kg,73.7 mL/min/kg,14%,231 ng·h/mL,34.2 min,2.51 L/kg,–,358 nM
"CC[C@H](Nc1ncnc(N)c1-c1ncn(C)n1)c1nc2cccc(Cl)c2c(=O)n1C1CC1 [Ex. 53, (S)-2-(1-((6-amino-5-(1-methyl-1H-1,2,4-triazol-3-yl)pyrimidin-4-yl)amino)-propyl)-5-chloro-3-cyclopropylquinazolin-4(3H)-one]",28 min,62.1 mL/min/kg,34.1 min,72.9 mL/min/kg,38.2 mL/min/kg,97.3%,429 ng·h/mL,97.2 min,3.88 L/kg,–,239 nM
"CC[C@H](Nc1ncnc(N)c1-c1nnc(C)o1)c1nc2cccc(F)c2c(=O)n1C1CC1 [Ex. 25, (S)-2-(1-((6-amino-5-(5-methyl-1,3,4-oxadiazol-2-yl)pyrimidin-4-yl)amino)-propyl)-3-cyclopropyl-5-fluoroquinazolin-4(3H)-one]",150 min,16.6 mL/min/kg,49.9 min,49.8 mL/min/kg,75.7 mL/min/kg,62.3%,223 ng·h/mL,48.6 min,3.77 L/kg,–,298 nM
"CC[C@H](Nc1ncnc(N)c1-c1ncn(C)n1)c1nc2cccc(Cl)c2c(=O)n1-c1ccccc1 [Ex. 32, (S)-2-(1-((6-amino-5-(1-methyl-1H-1,2,4-triazol-3-yl)pyrimidin-4-yl)amino)-propyl)-5-chloro-3-phenylquinazolin-4(3H)-one]",17.4 min,100 mL/min/kg,20 min,124 mL/min/kg,43.3 mL/min/kg,61%,390 ng·h/mL,37.8 min,1.51 L/kg,–,70 nM
"CC[C@H](Nc1ncnc(N)c1-c1ccn(C)n1)c1nc2cccc(Cl)c2c(=O)n1C1CC1 [Ex. 51, (S)-2-(1-((6-amino-5-(1-methyl-1H-pyrazol-3-yl)pyrimidin-4-yl)amino)propyl)-5-chloro-3-cyclopropylquinazolin-4(3H)-one]",22.6 min,76.9 mL/min/kg,18.2 min,136 mL/min/kg,27.3 mL/min/kg,59.8%,609 ng·h/mL,115 min,1.64 L/kg,–,135 nM
"CC[C@@H](Nc1ncnc(N)c1-c1nc(C)no1)c1nc2cccc(Cl)c2c(=O)n1C1CC1 [Ex. 19, (R)-2-(1-((6-amino-5-(3-methyl-1,2,4-oxadiazol-5-yl)pyrimidin-4-yl)amino)propyl)-5-chloro-3-cyclopropylquinazolin-4(3H)-one]",52.4 min,47.4 mL/min/kg,19.7 min,126 mL/min/kg,127 mL/min/kg,5.49%,132 ng·h/mL,51.6 min,6.98 L/kg,–,> 3000 nM

# The next compounds have a lower IC50 (PI3K (p110δ/p85α) (h)) than those just listed; values first:
half-life at 5 μM [1],CLint scaled at 5 μM [1],half-life at 5 μM [2],CLint scaled at 5 μM [2],clearance (CL) [3],bioavailability [3],AUC(0-t) [3],half-life [3],Vd [3],IC50 (PI3K (p110β/p85α) (h)),IC50 (PI3K (p110δ/p85α) (h)),Compound
6.66 min,261 mL/min/kg,3.36 min,739 mL/min/kg,73.7 mL/min/kg,3.27%,229 ng·h/mL,115 min,7.32 L/kg,–,20 nM,"CC(C)c1nc(-c2c(N)ncnc2N[C@@H](C)c2nc3cccc(Cl)c3c(=O)n2C2CC2)no1 [Ex. 59, (S)-2-(1-((6-amino-5-(5-isopropyl-1,2,4-oxadiazol-3-yl)pyrimidin-4-yl)amino)ethyl)-5-chloro-3-cyclopropylquinazolin-4(3H)-one]"
16 min,109 mL/min/kg,8.57 min,290 mL/min/kg,71.3 mL/min/kg,36.6%,236 ng·h/mL,39.3 min,3.05 L/kg,–,12 nM,"CC[C@H](Nc1ncnc(N)c1-c1nnc(C)o1)c1nc2cccc(C)c2c(=O)n1-c1ccccc1 [Ex. 38, (S)-2-(1-((6-amino-5-(5-methyl-1,3,4-oxadiazol-2-yl)pyrimidin-4-yl)amino)-propyl)-5-methyl-3-phenylquinazolin-4(3H)-one]"
7.56 min,328 mL/min/kg,7.27 min,342 mL/min/kg,64.8 mL/min/kg,16.2%,260 ng·h/mL,42 min,3.42 L/kg,–,18 nM,"CC[C@H](Nc1ncnc(N)c1-c1nnc(C)o1)c1nc2cccc(C)c2c(=O)n1-c1ccccc1C [Ex. 31, (S)-2-(1-((6-amino-5-(5-methyl-1,3,4-oxadiazol-2-yl)pyrimidin-4-yl)amino)propyl)-5-methyl-3-(o-tolyl)quinazolin-4(3H)-one]"
15.3 min,163 mL/min/kg,7.95 min,312 mL/min/kg,159 mL/min/kg,29.8%,104 ng·h/mL,51 min,9.46 L/kg,–,26 nM,"CC[C@H](Nc1ncnc(N)c1-c1nc(C)no1)c1nc2ccccc2c(=O)n1-c1ccccc1F [Ex. 22, (S)-2-(1-((6-amino-5-(3-methyl-1,2,4-oxadiazol-5-yl)pyrimidin-4-yl)amino)propyl)-3-(2-fluorophenyl)quinazolin-4(3H)-one]"
5.3 min,328 mL/min/kg,7.2 min,345 mL/min/kg,67.5 mL/min/kg,24.6%,246 ng·h/mL,80.4 min,4.9 L/kg,–,6 nM,"CC[C@H](Nc1ncnc(N)c1-c1nc(C)no1)c1nc2cccc(C)c2c(=O)n1-c1ccccc1 [Ex. 37, (S)-2-(1-((6-amino-5-(3-methyl-1,2,4-oxadiazol-5-yl)pyrimidin-4-yl)amino)-propyl)-5-methyl-3-phenylquinazolin-4(3H)-one]"
50.4 min,34.5 mL/min/kg,46.2 min,53.7 mL/min/kg,71.8 mL/min/kg,27.7%,238 ng·h/mL,81 min,6.11 L/kg,–,37 nM,"CC[C@H](Nc1ncnc(N)c1-c1nc(C)no1)c1nc2cccc(Cl)c2c(=O)n1[C@@H]1C[C@@H]1F [Ex. 62, 2-((S)-1-((6-amino-5-(3-methyl-1,2,4-oxadiazol-5-yl)pyrimidin-4-yl)amino)propyl)-5-chloro-3-((1R,2S)-2-fluorocyclopropyl)quinazolin-4(3H)-one]"
20.6 min,84.6 mL/min/kg,31 min,80.2 mL/min/kg,31.8 mL/min/kg,48.9%,518 ng·h/mL,76.8 min,3.14 L/kg,–,48 nM,"CC[C@H](Nc1ncnc(N)c1-c1noc(C)n1)c1nc2cccc(Cl)c2c(=O)n1C1CC1 [Ex. 12, (S)-2-(1-((6-amino-5-(5-methyl-1,2,4-oxadiazol-3-yl)pyrimidin-4-yl)amino)-propyl)-5-chloro-3-cyclopropylquinazolin-4(3H)-one]"
44.3 min,56 mL/min/kg,56.9 min,43.7 mL/min/kg,71.3 mL/min/kg,34.1%,237 ng·h/mL,56.4 min,5.02 L/kg,–,52 nM,"CC[C@H](Nc1ncnc(N)c1-c1nc(C)no1)c1nc2cccc(F)c2c(=O)n1C1CC1 [Ex. 23, (S)-2-(1-((6-amino-5-(3-methyl-1,2,4-oxadiazol-5-yl)pyrimidin-4-yl)amino)-propyl)-3-cyclopropyl-5-fluoroquinazolin-4(3H)-one]"
